The record followed here is ChEMBL document CHEMBL4680341, “Substituted diaryl ether compounds as retinoic acid-related orphan Receptor-γt (RORγt) agonists” (Bioorg Med Chem Lett, 2021).

Data set [1] is described as follows: in vitro. The settings on record: human, liver microsomes. On the technique in general: Liver microsomes are a subcellular fraction often used to study metabolism.
Description: Stability in human liver microsomes assessed as parent compound remaining at 3 uM after 10 mins by mass spectrometric method
Data set [2] in a line: in vitro. As to conditions: mouse, liver microsomes.
Description: Stability in mouse liver microsomes assessed as parent compound remaining at 3 uM after 10 mins by mass spectrometric method
A short description of data set [3]: in vitro. The settings on record: rat, liver microsomes.
Description: Stability in rat liver microsomes assessed as parent compound remaining at 3 uM after 10 mins by mass spectrometric method

A word on the amount remaining: it is the share of the starting amount still present when the sample was taken. A lower amount remaining goes with a greater loss. On to `CC(C)c1cc(F)cc(Oc2c(Cl)cc(NC(=O)Cc3cccnc3)cc2Cl)c1`, for which the share remaining at 10 min, 3 µM in “in vitro [1]” is 79%; in the data set “in vitro [2]”, 81%; in the data set “in vitro [3]”, 78%.
